Like-named read-outs stand apart in the source and are kept apart here.
Assay: Plasma pharmacokinetics (LC–MS/MS, non-compartmental analysis)
Format: in vivo, Japanese patients
Conditions: for Tmax / AUC(0-inf) / AUC(0-t) / Cmax: human, plasma, oral; for AUC(0-inf): read-out: AUCinf, Median; for Cmax: read-out: Cmax, Median
Description: The PK parameters were determined by non-compartmental analysis using Phoenix WinNonlin 6.2® (Pharsight, Mountain View, CA).

Work on `Cn1c(=O)n(-c2ccc(C(C)(C)C#N)cc2)c2c3cc(-c4cnc5ccccc5c4)ccc3ncc21` [BEZ235] yielded a Tmax (800 mg, Cycle 1 Day 8, 800 mg qd, n = 3, read-out: Tmax, Median) of 6 h, an AUC(0-inf) (800 mg, Cycle 1 Day 28, 800 mg qd, n = 2) of 13500 ng·h/mL and an AUC(0-t) (800 mg, Cycle 1 Day 28, 800 mg qd, n = 3, read-out: AUC0 − 24, Median) of 25000 ng·h/mL. It also gave an AUC(0-t) (800 mg, Cycle 1 Day 28, 800 mg qd, n = 3, read-out: AUClast, Median) of 24900 ng·h/mL, a Cmax (800 mg, Cycle 1 Day 28, 800 mg qd, n = 3) of 1980 ng/mL and a Tmax (800 mg, Cycle 1 Day 28, 800 mg qd, n = 3, read-out: Tmax, Median) of 2 h. For the same compound, the AUC(0-inf) (1000 mg, Cycle 1 Day 1, 1000 mg qd, n = 3) was 1410 ng·h/mL, the AUC(0-t) (1000 mg, Cycle 1 Day 1, 1000 mg qd, n = 4, read-out: AUC0 − 24, Median) was 4330 ng·h/mL and the AUC(0-t) (1000 mg, Cycle 1 Day 1, 1000 mg qd, n = 6, read-out: AUClast, Median) was 4490 ng·h/mL. It also gave a Cmax (1000 mg, Cycle 1 Day 1, 1000 mg qd, n = 6) of 472 ng/mL, a Tmax (1000 mg, Cycle 1 Day 1, 1000 mg qd, n = 6, read-out: Tmax, Median) of 5 h and an AUC(0-t) (1000 mg, Cycle 1 Day 8, 1000 mg qd, n = 3, read-out: AUC0 − 24, Median) of 8260 ng·h/mL. For the same compound, the AUC(0-inf) (1000 mg, Cycle 1 Day 8, 1000 mg qd, n = 3) was 8300 ng·h/mL, the AUC(0-t) (1000 mg, Cycle 1 Day 8, 1000 mg qd, n = 7, read-out: AUClast, Median) was 9350 ng·h/mL and the Cmax (1000 mg, Cycle 1 Day 8, 1000 mg qd, n = 7) was 912 ng/mL. It also gave a Tmax (1000 mg, Cycle 1 Day 8, 1000 mg qd, n = 7, read-out: Tmax, Median) of 6 h, an AUC(0-t) (1000 mg, Cycle 1 Day 28, 1000 mg qd, n = 2, read-out: AUC0 − 24, Median) of 3740 ng·h/mL and an AUC(0-inf) (1000 mg, Cycle 1 Day 28, 1000 mg qd, n = 2) of 3770 ng·h/mL. It also gave an AUC(0-t) (1000 mg, Cycle 1 Day 28, 1000 mg qd, n = 4, read-out: AUClast, Median) of 4800 ng·h/mL, a Cmax (1000 mg, Cycle 1 Day 28, 1000 mg qd, n = 4) of 548 ng/mL and a Tmax (1000 mg, Cycle 1 Day 28, 1000 mg qd, n = 4, read-out: Tmax, Median) of 4 h. For the same compound, the AUC(0-inf) (1200 mg, Cycle 1 Day 1, 1200 mg qd, n = 1) was 2290 ng·h/mL, the AUC(0-t) (1200 mg, Cycle 1 Day 1, 1200 mg qd, n = 3, read-out: AUC0 − 24, Median) was 6420 ng·h/mL and the AUC(0-t) (1200 mg, Cycle 1 Day 1, 1200 mg qd, n = 5, read-out: AUClast, Median) was 6420 ng·h/mL. It also gave a Cmax (1200 mg, Cycle 1 Day 1, 1200 mg qd, n = 5) of 403 ng/mL, a Tmax (1200 mg, Cycle 1 Day 1, 1200 mg qd, n = 5, read-out: Tmax, Median) of 6 h and an AUC(0-inf) (1200 mg, Cycle 1 Day 8, 1200 mg qd, n = 1) of 14400 ng·h/mL. It also gave an AUC(0-t) (1200 mg, Cycle 1 Day 8, 1200 mg qd, n = 4, read-out: AUC0 − 24, Median) of 34200 ng·h/mL, an AUC(0-t) (1200 mg, Cycle 1 Day 8, 1200 mg qd, n = 4, read-out: AUClast, Median) of 33500 ng·h/mL and a Cmax (1200 mg, Cycle 1 Day 8, 1200 mg qd, n = 4) of 1810 ng/mL. It also gave a Tmax (1200 mg, Cycle 1 Day 8, 1200 mg qd, n = 4, read-out: Tmax, Median) of 4 h, an AUC(0-t) (1200 mg, Cycle 1 Day 28, 1200 mg qd, n = 1, read-out: AUC0 − 24, Median) of 43400 ng·h/mL and an AUC(0-t) (1200 mg, Cycle 1 Day 28, 1200 mg qd, n = 2, read-out: AUClast, Median) of 37100 ng·h/mL. The Cmax (1200 mg, Cycle 1 Day 28, 1200 mg qd, n = 2) was 2170 ng/mL, the Tmax (1200 mg, Cycle 1 Day 28, 1200 mg qd, n = 2, read-out: Tmax, Median) was 5.9 h and the AUC(0-inf) (1400 mg, Cycle 1 Day 1, 1400 mg qd, n = 1) was 1290 ng·h/mL. For the same compound, the AUC(0-t) (1400 mg, Cycle 1 Day 1, 1400 mg qd, n = 2, read-out: AUC0 − 24, Median) was 13700 ng·h/mL, the AUC(0-t) (1400 mg, Cycle 1 Day 1, 1400 mg qd, n = 5, read-out: AUClast, Median) was 10200 ng·h/mL and the Cmax (1400 mg, Cycle 1 Day 1, 1400 mg qd, n = 5) was 733 ng/mL. The Tmax (1400 mg, Cycle 1 Day 1, 1400 mg qd, n = 5, read-out: Tmax, Median) was 8 h, the AUC(0-t) (1400 mg, Cycle 1 Day 8, 1400 mg qd, n = 3, read-out: AUC0 − 24, Median) was 36400 ng·h/mL and the AUC(0-t) (1400 mg, Cycle 1 Day 8, 1400 mg qd, n = 5, read-out: AUClast, Median) was 35900 ng·h/mL. The Cmax (1400 mg, Cycle 1 Day 8, 1400 mg qd, n = 5) was 2480 ng/mL, the Tmax (1400 mg, Cycle 1 Day 8, 1400 mg qd, n = 5, read-out: Tmax, Median) was 4 h and the AUC(0-inf) (1400 mg, Cycle 1 Day 28, 1400 mg qd, n = 3) was 30700 ng·h/mL. For the same compound, the AUC(0-t) (1400 mg, Cycle 1 Day 28, 1400 mg qd, n = 4, read-out: AUC0 − 24, Median) was 18300 ng·h/mL, the AUC(0-t) (1400 mg, Cycle 1 Day 28, 1400 mg qd, n = 4, read-out: AUClast, Median) was 18300 ng·h/mL and the Cmax (1400 mg, Cycle 1 Day 28, 1400 mg qd, n = 4) was 1510 ng/mL. The Tmax (1400 mg, Cycle 1 Day 28, 1400 mg qd, n = 4, read-out: Tmax, Median) was 4 h, the Tmax (across all dose levels and dosing schedules, Day 1, Day 8, Day 28 of Cycle 1, read-out: Median Tmax) was about 4 h and the Tmax (all dose levels and dosing schedules, read-out: individual Tmax range) was 1 to 24 h. The “PK exposures on Day 8 versus Day 1” value (qd and bid regimens, Cycle 1) was “at least threefold higher”.

Source: article PMC6394493 (Cancer Chemotherapy and Pharmacology, 2018)
